In PubChem BioAssay (NCI):
“And” between values parts separate entries of the source, which are not always exact repeats. Identical values can stand only once.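 Following 48 hours of exposure in 96-well plates, responses at five concentrations were used to interpolate endpoints linearly. GI50 = concentration required for 50% inhibition of growth. The concentration for full growth arrest is given as TGI.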

Assays:
Assay in all cases: NCI-60 cell line screen, 48 h
[1] = tested on: A549 NSCLC
[2] = tested on: BT-549 breast
[3] = tested on: HCC-2998 colon
[4] = tested on: HCT-116 colon
[5] = tested on: HT29 colon
[6] = tested on: LOX IMVI melanoma
[7] = tested on: M14 melanoma
[8] = tested on: SK-OV-3 ovarian
[9] = tested on: SNB-75 CNS
[10] = tested on: SR leukemia

Structure (SMILES) | GI50 [1] [µM] | TGI [1] | GI50 [2] [µM] | TGI [2] [µM] | GI50 [3] [µM] | TGI [3] | GI50 [4] [µM] | TGI [4] | GI50 [5] [µM] | TGI [5] [µM] | GI50 [6] [µM] | TGI [6] [µM] | GI50 [7] [µM] | TGI [7] | GI50 [8] [µM] | TGI [8] [µM] | GI50 [9] [µM] | TGI [9] [µM] | GI50 [10] [µM] | TGI [10]
c1ccc(Oc2cnc3ccccc3n2)cc1 | > 100 | > 100 µM | 12 | 68.3 | > 100 | > 100 µM | > 100 | > 100 µM | > 100 | > 100 | > 100 | > 100 | > 100 | > 100 µM | > 100 | > 100 | 33.8 | > 100 | 55.3 | > 100 µM
COc1ccc(-n2cc(-c3ccc(F)cc3)[nH]c2=O)cc1OC | > 100 | > 100 µM | > 100 | > 100 | > 100 | > 100 µM | > 100 | > 100 µM | > 100 | > 100 | > 100 | > 100 | > 100 | > 100 µM | > 100 | > 100 | > 100 | > 100 | > 100 | > 100 µM
O=c1c(Br)ccc(Br)cc1Br | 9.02 | 31.8 µM | 2.08 | 3.98 | 3.07 | 8.6 µM | 1.51 | 2.88 µM | 1.77 | 4.45 | 0.897 | 2.35 | 1.48 | 2.91 µM | 15.7 | 29.2 | 1.83 | 4.24 | 0.367 | 1.48 µM
COC(=O)/C=C/c1cc(OC)c2c(c1)[C@@H](C(=O)OC)[C@H](c1ccc(OC)c(OC)c1)O2 | 11.2 | > 100 µM | 4.88 | > 100 | 3.35 | > 100 µM | 0.528 | > 100 µM | 0.505 | > 100 | 0.771 | > 100 | 0.816 | > 100 µM | 6.13 | > 100 | 0.432 | > 100 | 0.543 | > 100 µM
CCCCCCOc1ccc(/C=N/Nc2cc(C)nc3ccc(Br)cc23)cc1 | 1.78 | 3.43 µM | 1.91 | 3.91 | 2.03 | 3.56 µM | 0.85 | 2.11 µM | 1.63 | 3.12 | 1.53 | 2.9 | 1.67 | 3.08 µM | 1.66 | 3.07 | 1.84 | 3.46 | 0.396 | 1.85 µM
CN1CCN(C(=S)N(C(=O)c2ccc(Cl)cc2)C2CCCCC2)CC1 |  | > 100 µM |  | > 100 |  | > 100 µM |  |  |  | > 100 |  | > 100 |  | > 100 µM |  |  |  | 85.2 |  | > 100 µM
COc1nc(C(Cl)(Cl)Cl)c(Cl)c(OC)c1Cl | > 52.5 | > 88.9 µM and 77.8 µM |  | 71.3 |  | > 58.3 µM and 95 µM |  | > 57.8 µM and 78.3 µM | > 57 | 96.5 |  | 62.6 | > 52 | > 83.7 µM and 74.5 µM | > 64.2 | 26.9 |  | 55.6 | > 45.5 | > 72.1 µM and 82.6 µM
O=c1c(-c2nc3ccccc3[nH]2)cc2ccccc2n1Cc1cn(Cc2ccc(F)cc2)nn1 | 0.116 | > 100 µM | 0.164 | > 40.5 | 0.203 | 3.31 µM | 0.0442 | 5.56 µM | 0.041 | 96.9 | 0.084 | > 100 | 0.0568 | 0.39 µM | 0.328 | 4.63 | < 0.0149 | 0.113 | 0.0732 | > 100 µM
COc1cc(-c2cc(C(=O)N3CCN(C(=O)c4ccccc4NCc4cccs4)CC3)nc3cc(-c4ccccc4)nn23)cc(OC)c1OC | 5.68 | > 100 µM | 6.26 | > 100 | 14.3 | > 100 µM | 4.49 | > 100 µM | 3.78 | 15 | 6.04 | > 100 | 5.91 | > 100 µM | 5.5 | > 100 | 3.32 | 27.6 | 3.31 | > 100 µM
COc1ccc2nc3c(cc2c1)C(=O)CC(C(F)(F)F)C3 (stereo not given) | 2.48 | > 100 µM | 3.1 | > 100 | 4.14 | 99.1 µM | 0.142 | > 100 µM | 0.433 | > 100 | 3.54 | > 100 | 0.238 | > 100 µM | 4.23 | > 100 | 1.04 | > 100 | 0.262 | > 100 µM
CC(=O)SC(C[N+](=O)[O-])c1ccccc1 (stereo not given) |  | 14 µM |  | 5.19 |  | 10.6 µM |  | 4.48 µM |  | 4.22 |  | 3.34 |  | 17.2 µM |  | 26.2 |  | 7.65 |  | 6.85 µM
NC1=C(O)/C(=N/NS(=O)(=O)c2ccccc2)C(c2cccc(Cl)c2)O1 (stereo not given) |  | > 100 µM |  | > 100 |  | > 100 µM |  | 53.6 µM |  | 55 |  | 49.2 |  | 67.6 µM |  | > 100 |  | > 80.4 |  | 9.15 µM
COc1cccc(-c2nn(C)c3sc(C(=O)NCCN4CCN(c5ccccc5F)CC4)cc23)c1 | 15.3 | > 100 µM | > 100 | > 100 | 7.06 | > 100 µM | 9.91 | > 100 µM | 4.66 | 51.3 | 13.4 | > 100 |  |  | > 100 | > 100 | 3.59 | 95.3 | 5.43 | > 100 µM
C/C(=N\O)c1ccc(Nc2cc(-c3ccccc3)nc3c(O)cccc23)cc1 | 10.2 | 31 µM | 23.3 | 86.6 | 10.6 | 23.4 µM | 13.2 | 25.9 µM | 19.8 | 48.1 | 6.71 | 24 | 16.2 | 31.3 µM | 27.4 | 56.1 | 16.3 | 31.8 | 1.27 | 24.1 µM
O=C1/C=C/[C@@H](O)[C@@H]2C[C@@H](O)C[C@H]2/C=C/CCCCO1 | 0.422 | > 100 µM | 0.607 | > 100 | 0.32 | 1.76 µM | 0.447 | 1.53 µM | 0.338 | > 100 | 0.223 | 0.539 | 0.336 | > 100 µM | 1.05 | > 100 | 0.17 | > 100 | 8.61 | > 100 µM
Clc1ccc2c(NCCCNCc3ccc4c(c3)OCO4)ccnc2c1 | 9.47 | 22.8 µM | 4.47 | 17.7 | 2.03 | 5.25 µM | 2.03 | 8.82 µM | 2.23 | 6.85 | 1.91 | 4.41 | 1.74 | 3.42 µM | 14.7 | 29.3 | 1.52 | 3.37 | 1.99 | 4.67 µM
COc1ccc(S(=O)(=O)Nc2c(/C=C\c3cc(OC)c(OC)c(OC)c3)ccc(OC)c2O)cc1OC | 0.403 | > 100 µM | 0.256 |  | 0.306 | 5.57 µM | 0.171 | > 100 µM | 0.498 | > 100 | 0.294 | > 100 | 0.205 | > 100 µM | 1.29 | > 100 | 0.251 | > 100 | 0.0661 | > 75.9 µM
C=CCOc1ccc2c(c1)CC[C@@H]1[C@@H]2CC[C@]2(C)C(=O)/C(=N/O)C[C@@H]12 | 4.45 | > 48.8 µM | 2.71 | 19.2 | 1.09 | 3.06 µM | 2.04 | 6.82 µM | 1.81 | 4.68 | 2.49 | 8.08 | 5.95 | 27.8 µM | 6.97 | 20.3 | 0.335 | 8.39 | 2.3 | 7.84 µM
Cn1cc(C2=C(c3cn(CCCN/C(N)=N\[N+](=O)[O-])c4ccccc34)C(=O)NC2=O)c2ccccc21 | 8.52 | > 25 µM | 2.1 | 9.38 | 6.72 | 20.4 µM | 1.82 | > 25 µM | 2.87 | 12.6 | 0.949 | 21.6 | 4.8 | 12.3 µM | 3.43 | > 20 | 0.161 | 7.92 | 0.898 | 3.96 µM
O=C1COCCN1c1ccc(NCc2cn(Cc3ccc(F)cc3)c3ccccc23)cc1 | 1.68 | > 100 µM | 3.47 | 22.4 | 11.1 | 51.7 µM | 0.0618 | 14 µM | 1.67 | > 100 | 5.32 | 25.3 | 5.46 | 40.8 µM | 1.65 | 8.14 | 2.03 | 13 | 3.84 | > 100 µM
Nc1c(C(=O)Nc2cccc3ccccc23)sc2nc3c(cc12)CCCCCC3 | 2.54 | > 50 µM | 0.954 | 4.81 | 2.64 | > 50 µM | 1.72 | > 50 µM | 1.67 | 5.58 | 1.96 | > 50 | 1.05 | > 50 µM | 1.95 | > 50 | 1.24 | > 50 | 0.429 | > 50 µM
COc1cc(-c2nc3cc(Cl)c(Cl)cc3[nH]2)ccc1OCC(=O)N=Nc1c(O)[nH]c2ccccc12 | 1.41 | 14.1 µM | 0.822 | 2.29 | 0.419 | 1.43 µM | 0.445 | 1.55 µM | 0.352 | 4.72 | 0.192 | 0.368 | 0.328 | 1.33 µM | 1.91 | 4.39 | 1.23 | 2.65 | 0.301 | > 100 µM
CCCCCC(=O)OC[n+]1ccc(-c2c(COC(=O)NC(C)C)c(COC(=O)NC(C)C)c3n2CCC3)cc1 |  | > 100 µM |  | > 100 |  | > 100 µM |  | > 100 µM |  | > 100 |  | > 100 |  | > 100 µM |  | > 100 |  | > 100 |  | > 80.9 µM
CCOc1ccc(-n2cc(-c3ccc(N(C)C)cc3)[n+]3c2CCCCC3)cc1 | 1.88 | > 100 µM | 0.406 | 29.1 | 0.188 | > 100 µM | 0.267 | > 100 µM | 0.609 | > 24.7 | 0.359 | > 65.6 | 1.46 | 33.8 µM | 1.61 | 7.41 | 0.906 | 17.7 | 0.978 | 29.4 µM
COc1ccc(/C=C2\CCC(CN(C)C)C2=O)cc1 (stereo not given) |  | 30.6 µM |  | 9.27 |  | 19.1 µM |  | 8.27 µM |  | 24.1 |  | 3.63 |  | 7.02 µM |  | 31.4 |  | 25.6 |  | 6.21 µM
Nc1c(S(=O)(=O)O)cc2c(c1Cl)C(=O)c1ccccc1C2=O | > 100 | > 100 µM | > 100 | > 100 | > 100 | > 100 µM | > 100 | > 100 µM | > 100 | > 100 | > 100 | > 100 | > 100 | > 100 µM | > 100 | > 100 | > 100 | > 100 | > 100 | > 100 µM
O=C(Nc1ccc(-n2cc(-c3ccncc3)c(-c3ccc(Cl)c(O)c3)n2)cc1)c1ccc(Cl)c(C(F)(F)F)c1 | 5.41 | > 31.4 µM | 1.12 | 12.6 | 1.69 | 6.96 µM | 0.918 | 2.45 µM | 0.838 | 3.05 | 0.344 | 1.58 | 1.16 | 3.29 µM | 1.81 | 8.81 | 0.362 | 1.9 | 1.37 | > 26.2 µM
